Data: publication PMC4151877 (Science (New York, N.Y.), 2014)

Assays:
NaAtm1 [1] = molecular target: T1, NaAtm1 (Novosphingobium aromaticivorans, UniProt Q2G506); assay: ligand-stimulated ATPase activity; type: biochemical; settings: ATP hydrolysis
T1 sequence (Q2G506 1-608): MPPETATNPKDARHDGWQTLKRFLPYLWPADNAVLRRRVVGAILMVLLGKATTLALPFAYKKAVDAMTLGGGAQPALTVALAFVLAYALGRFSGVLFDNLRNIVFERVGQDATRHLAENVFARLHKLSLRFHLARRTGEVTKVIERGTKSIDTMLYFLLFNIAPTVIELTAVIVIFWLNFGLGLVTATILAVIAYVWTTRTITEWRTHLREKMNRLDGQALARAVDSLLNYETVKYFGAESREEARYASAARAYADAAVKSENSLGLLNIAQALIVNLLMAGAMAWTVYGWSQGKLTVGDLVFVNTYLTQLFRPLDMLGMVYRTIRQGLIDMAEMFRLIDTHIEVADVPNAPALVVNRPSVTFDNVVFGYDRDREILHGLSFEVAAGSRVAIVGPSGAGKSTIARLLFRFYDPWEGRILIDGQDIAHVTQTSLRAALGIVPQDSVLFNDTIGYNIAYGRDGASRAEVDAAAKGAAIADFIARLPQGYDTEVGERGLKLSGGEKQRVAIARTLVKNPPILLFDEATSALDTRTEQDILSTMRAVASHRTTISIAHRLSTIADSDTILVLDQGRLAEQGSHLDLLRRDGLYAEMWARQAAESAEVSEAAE

NaAtm1 [2] = molecular target: T1, NaAtm1; assay: ligand-stimulated ATPase activity, Michaelis-Menten type analysis; type: biochemical; settings: ATP hydrolysis; stimulating ligand varied

SMILES	ATPase stimulation (NaAtm1 [1])	Km (NaAtm1 [2])
N[C@@H](CS)C(=O)NCC(=O)O [Cys-Gly]	exhibit stronger ATPase activities relative to Cys-Gly and mono-carboxylic acids	–
CSCC[C@H](N)C(=O)O [Met]	free amino acids Gly and Met to stimulate ATPase activity as effectively as GSH	–
N[C@@H](CCC(=O)N[C@@H](CS)C(=O)O)C(=O)O [γ-Glu-Cys]	–	γ-peptides GSH, γ-Glu-Cys, and ophthalmic acid
